US10005767B2, “Compositions and methods for inhibition of the JAK pathway” (Rigel Pharmaceuticals, Inc., priority 2009, dated 2018)
pIC50: −log10 of the molar value.

Tested on: human primary T-cells, IL-2 stimulated proliferation (JAK-1 and JAK-3 dependent; reported as JAK3 activity)
Test: Human primary T-cell proliferation stimulated by IL-2 (Example 3)
Assay type: cell-based
Conditions: Homo sapiens, T-cell, tested under conditions described in Example 3 (IL-2 stimulated human primary T-cell proliferation); read-out: ability to inhibit JAK3 activity, IC50 range (Table V)
Summary of the method: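 Peripheral-blood human T-cells pre-activated via TCR/CD28, IL-2-starved overnight, then cultured 72 h at 37 °C with compound in Yssel's medium containing IL-2 (80 U/mL in cell suspension). Proliferation read as viable-cell ATP by CellTiter-Glo luminescence; reduction versus control taken as JAK pathway inhibition.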

Compound	pIC50
Cc1cnc(Nc2ccc(N3CCOCC3)nc2)nc1Nc1cc(C)c2oc(=O)[nH]c2c1 [II-73, 7-methyl-5-(5-methyl-2-(6-morpholinopyridin-3-ylamino)pyrimidin-4-ylamino)benzo[d]oxazol-2(3H)-one]	> 6.30
Cc1cnc(Nc2ccc(NCC3CC3)nc2)nc1Nc1ccc2oc(=O)[nH]c2c1 [II-74, 5-(2-(6-(cyclopropylmethylamino)pyridin-3-ylamino)-5-methylpyrimidin-4-ylamino)benzo[d]oxazol-2(3H)-one]	> 6.30
Cc1cnc(Nc2ccc(N3CCN(C)CC3)nc2)nc1Nc1cc(F)c2oc(=O)[nH]c2c1 [II-75, 7-fluoro-5-(5-methyl-2-(6-(4-methylpiperazin-1-yl)pyridin-3-ylamino)pyrimidin-4-ylamino)benzo[d]oxazol-2(3H)-one]	> 6.30
Cc1cnc(Nc2ccc(N3CCOCC3)nc2)nc1Nc1cc(F)c2oc(=O)[nH]c2c1 [II-76, 7-fluoro-5-(5-methyl-2-(6-morpholinopyridin-3-ylamino)pyrimidin-4-ylamino)benzo[d]oxazol-2(3H)-one]	> 6.30
Cc1cnc(Nc2cncc(Br)c2)nc1Nc1ccc2oc(=O)[nH]c2c1 [II-77, 5-(2-(5-bromopyridin-3-ylamino)-5-methylpyrimidin-4-ylamino)benzo[d]oxazol-2(3H)-one]	5.30 to 6.30
Cc1cnc(Nc2ccc(NS(C)(=O)=O)nc2)nc1Nc1ccc2oc(=O)[nH]c2c1 [II-78, N-(5-(5-methyl-4-(2-oxo-2,3-dihydrobenzo[d]oxazol-5-ylamino)pyrimidin-2-ylamino)pyridin-2-yl)methanesulfonamide]	> 6.30
Cc1cnc(Nc2ccc(NS(C)(=O)=O)nc2)nc1Nc1ccc2oc(=O)n(C)c2c1 [II-79, N-(5-(5-methyl-4-(3-methyl-2-oxo-2,3-dihydrobenzo[d]oxazol-5-ylamino)pyrimidin-2-ylamino)pyridin-2-yl)methanesulfonamide]	> 6.30
Cc1cnc(Nc2ccc(N3CCC(N(C)C)C3)nc2)nc1Nc1ccc2oc(=O)[nH]c2c1 (stereo not drawn) [II-80, 5-(2-(6-(3-(dimethylamino)pyrrolidin-1-yl)pyridin-3-ylamino)-5-methylpyrimidin-4-ylamino)benzo[d]oxazol-2(3H)-one]	> 6.30
CC(=O)NC1CCN(c2ccc(Nc3ncc(C)c(Nc4ccc5oc(=O)[nH]c5c4)n3)cn2)C1 (stereo not drawn) [II-81, N-(1-(5-(5-methyl-4-(2-oxo-2,3-dihydrobenzo[d]oxazol-5-ylamino)pyrimidin-2-ylamino)pyridin-2-yl)pyrrolidin-3-yl)acetamide]	> 6.30
CCN(CC)C1CCN(c2ccc(Nc3ncc(C)c(Nc4ccc5oc(=O)[nH]c5c4)n3)cn2)C1 (stereo not drawn) [II-82, 5-(2-(6-(3-(diethylamino)pyrrolidin-1-yl)pyridin-3-ylamino)-5-methylpyrimidin-4-ylamino)benzo[d]oxazol-2(3H)-one]	> 6.30
Cc1cnc(Nc2ccc(N3CCC(NC(=O)C(F)(F)F)C3)nc2)nc1Nc1ccc2oc(=O)[nH]c2c1 (stereo not drawn) [II-83, 2,2,2-trifluoro-N-(1-(5-(5-methyl-4-(2-oxo-2,3-dihydrobenzo[d]oxazol-5-ylamino)pyrimidin-2-ylamino)pyridin-2-yl)pyrrolidin-3-yl)acetamide]	> 6.30
Cc1cnc(Nc2ccc(N3CCC(N4CCOCC4)C3)nc2)nc1Nc1ccc2oc(=O)[nH]c2c1 (stereo not drawn) [II-84, 5-(5-methyl-2-(6-(3-morpholinopyrrolidin-1-yl)pyridin-3-ylamino)pyrimidin-4-ylamino)benzo[d]oxazol-2(3H)-one]	> 6.30
CN1CCN(c2ccc(Nc3ncc(C(F)(F)F)c(Nc4ccc5oc(=O)[nH]c5c4)n3)cn2)CC1 [II-85, 5-(2-(6-(4-methylpiperazin-1-yl)pyridin-3-ylamino)-5-(trifluoromethyl)pyrimidin-4-ylamino)benzo[d]oxazol-2(3H)-one]	> 6.30
Cc1cnc(Nc2ccc(N3CCC(NC(=O)OC(C)(C)C)C3)nc2)nc1Nc1ccc2oc(=O)[nH]c2c1 (stereo not drawn) [II-86, tert-butyl 1-(5-(5-methyl-4-(2-oxo-2,3-dihydrobenzo[d]oxazol-5-ylamino)pyrimidin-2-ylamino)pyridin-2-yl)pyrrolidin-3-ylcarbamate]	> 6.30
Cc1cnc(Nc2ccc(N3CCC[C@H](N(C)C(=O)OC(C)(C)C)C3)nc2)nc1Nc1ccc2oc(=O)[nH]c2c1 [II-87, (S)-tert-butyl methyl(1-(5-(5-methyl-4-(2-oxo-2,3-dihydrobenzo[d]oxazol-5-ylamino)pyrimidin-2-ylamino)pyridin-2-yl)piperidin-3-yl)carbamate]	> 6.30
CN[C@@H]1CCCN(c2ccc(Nc3ncc(C)c(Nc4ccc5oc(=O)[nH]c5c4)n3)cn2)C1 [II-88, (R)-5-(5-methyl-2-(6-(3-(methylamino)piperidin-1-yl)pyridin-3-ylamino)pyrimidin-4-ylamino)benzo[d]oxazol-2(3H)-one]	> 6.30
Cc1cnc(Nc2ccc(N3CC[C@@H](N(C)C)C3)nc2)nc1Nc1ccc2oc(=O)[nH]c2c1 [II-89, (R)-5-(2-(6-(3-(dimethylamino)pyrrolidin-1-yl)pyridin-3-ylamino)-5-methylpyrimidin-4-ylamino)benzo[d]oxazol-2(3H)-one]	> 6.30
Cc1cnc(Nc2ccc(N3CC[C@H](N(C)C)C3)nc2)nc1Nc1ccc2oc(=O)[nH]c2c1 [II-90, (S)-5-(2-(6-(3-(dimethylamino)pyrrolidin-1-yl)pyridin-3-ylamino)-5-methylpyrimidin-4-ylamino)benzo[d]oxazol-2(3H)-one]	> 6.30
Cc1cnc(Nc2ccc(N3CCC[C@@H](N(C)C(=O)OC(C)(C)C)C3)nc2)nc1Nc1ccc2oc(=O)[nH]c2c1 [II-91, (R)-tert-butyl methyl(1-(5-(5-methyl-4-(2-oxo-2,3-dihydrobenzo[d]oxazol-5-ylamino)pyrimidin-2-ylamino)pyridin-2-yl)piperidin-3-yl)carbamate]	> 6.30
Cc1cnc(Nc2ccc(N3CCC(NS(C)(=O)=O)C3)nc2)nc1Nc1ccc2oc(=O)[nH]c2c1 (stereo not drawn) [II-93, N-(1-(5-(5-methyl-4-(2-oxo-2,3-dihydrobenzo[d]oxazol-5-ylamino)pyrimidin-2-ylamino)pyridin-2-yl)pyrrolidin-3-yl)methanesulfonamide]	> 6.30
Cc1cnc(Nc2ccc(N3CCC(NCC4CC4)C3)nc2)nc1Nc1ccc2oc(=O)[nH]c2c1 (stereo not drawn) [II-94, 5-(2-(6-(3-(cyclopropylmethylamino)pyrrolidin-1-yl)pyridin-3-ylamino)-5-methylpyrimidin-4-ylamino)benzo[d]oxazol-2(3H)-one]	> 6.30
Cc1cnc(Nc2ccc(N(C)[C@H]3CCCN(Cc4ccccc4)C3)nc2)nc1Nc1ccc2oc(=O)[nH]c2c1 [II-95, (S)-5-(2-(6-((1-benzylpiperidin-3-yl)(methyl)amino)pyridin-3-ylamino)-5-methylpyrimidin-4-ylamino)benzo[d]oxazol-2(3H)-one]	> 6.30
CCNC(=O)NC1CCN(c2ccc(Nc3ncc(C)c(Nc4ccc5oc(=O)[nH]c5c4)n3)cn2)C1 (stereo not drawn) [II-96, 1-ethyl-3-(1-(5-(5-methyl-4-(2-oxo-2,3-dihydrobenzo[d]oxazol-5-ylamino)pyrimidin-2-ylamino)pyridin-2-yl)pyrrolidin-3-yl)urea]	> 6.30
Cc1cnc(Nc2ccc(N3CCC(NC(=O)NC(C)(C)C)C3)nc2)nc1Nc1ccc2oc(=O)[nH]c2c1 (stereo not drawn) [II-97, 1-tert-butyl-3-(1-(5-(5-methyl-4-(2-oxo-2,3-dihydrobenzo[d]oxazol-5-ylamino)pyrimidin-2-ylamino)pyridin-2-yl)pyrrolidin-3-yl)urea]	> 6.30
